Consider 2 compounds from US5220029A, “Synthetic proteolytic substrate” (Vitek Systems, Inc., priority 1990, dated 1993).

Assay [1] concerns trypsin. The assay is described as follows: Determination of kinetic constants for the trypsin catalyzed hydrolysis (continuous assay). Type of assay: biochemical. The conditions noted are these: triplicate. From the text: (§1) The invention may be more thoroughly understood by reference to the included examples which describe the synthesis of amides of the type RCO-MBTH (Examples 1-15) and a continuous enzyme assay (Example 16). A disconintuous assay is illustrated in Example 17. Example 18 is a determination of the kinetic catalytic constant (kc) and binding constant (Km) for trypsin-catalyzed hydrolysis of an RCO-MBTH substrate by the continuous assay method.
Determination of the Kinetic Constants for the Trypsin Catalyzed Hydrolysis of N-(N-t-butoxycarbonyl)-L-Arginyl 3-methyl benzothiazolinone hydrazone (continuous assay)
In a one-cm. cuvette were mixed 3.0 mL of 0.02M tris buffer, pH 7.8, containing 0.02M 3-dimethylamino benzoic acid (DMAB) 0.1 mL of 0.065M potassium ferricyanide, and 0.1 mL of substrate (Boc-ARG-MBTH). The reaction was initiated by the addition of 0.1 mL of trypsin (2.33×10^-4 M in 0.1M pyrophosphate buffer, pH 8.3). Eight concentrations of substrate, from 9.98×10^-4 M to 7.8×10^-6 M, were assayed in triplicate. The increase in absorption at 590 nm was monitored continuously and the initial rates were determined. Under the conditions of the assay, a molar absorptivity of 57,000 was used to determine the concentration of the chromogen (MBTH-DMAB) produced by the hydrolysis of substrate. Table I contains the date used to determine the binding and kinetic constants (Km, kc).

The test system of assay [2] is trypsin. The assay is described as follows: Continuous assay for trypsin (saturation kinetics), color development by DMAB/ferricyanide at 590 nm. The conditions noted are these: 1 μg trypsin, 0.14M Tris pH 7.8, substrate 1.74×10^-3, 5.8×10^-4 and 3.9×10^-4 M in triplicate. Type of assay: biochemical.
From the text: as §1
Saturation kinetics for N-(N-benzyloxycarbonyl)glycyl-L-prolyl-L-arginyl 3-methyl-2-benzothiazolinone hydrazone with trypsin
A continuous assay for trypsin was performed, i.e., the oxidizing and coupling reagents for color development were included with the substrate in the reaction mixture so that color development may be monitored on a continuous basis with time. In this example the dye precursor is developed to a dye without destroying the enzymatic activity of the enzyme. The reaction was initiated by the addition of 0.1 mL of enzyme (10 μg/mL) to 0.9 mL of buffer solution containing substrate (Z-GLY-PRO-ARG-MBTH) and color developing reagents. […] The increases in absorbance at 590 nm were monitored continuously for 5 minutes and the initial rates determined. Using the molar absorptivity of 57,000 for the chromogen produced (MBTH-DMAB), the average rate of hydrolysis was calculated to be 4.43+0.1×10^-6 mol min^-1.

Values joined by “and” are separate entries in the source; they are usually repeats but may differ in a detail not shown here. Equal entries are not always repeated.

Regarding `Cn1c(=NNC(=O)[C@H](CCCNC(=N)N)NC(=O)OC(C)(C)C)sc2ccccc21` [Boc-ARG-MBTH, N-(N-t-butoxycarbonyl)-L-Arginyl 3-methyl benzothiazolinone hydrazone], the 1/V in the assay on trypsin [1] (1/s 100 M^-1) was 0.000565 min/M and 0.000528 min/M and 0.000625 min/M; with trypsin [1] (1/s 200 M^-1) it was 0.000699 min/M and 0.000742 min/M; with trypsin [1] (1/s 401 M^-1), 0.000766 min/M and 0.00088 min/M and 0.000819 min/M; in the assay on trypsin [1] (1/s 802 M^-1), 0.001033 min/M and 0.00108 min/M and 0.001188 min/M; in the assay on trypsin [1] (1/s 1603 M^-1) it was 0.001697 min/M and 0.001827 min/M; in the assay on trypsin [1] (1/s 2305 M^-1), 0.002969 min/M and 0.003393 min/M. The 1/V with trypsin [1] (1/s 6413 M^-1) is 0.005056 min/M and 0.00528 min/M; in the assay on trypsin [1] (1/s 12826 M^-1) it was 0.009901 min/M and 0.009506 min/M.

As to `Cn1c(=NNC(=O)[C@H](CCCNC(=N)N)NC(=O)[C@@H]2CCCN2C(=O)CNC(=O)OCc2ccccc2)sc2ccccc21` [Z-GLY-PRO-ARG-MBTH, N-(N-benzyloxycarbonyl)glycyl-L-prolyl-L-arginyl 3-methyl-2-benzothiazolinone hydrazone], in the assay on trypsin [2], the “average rate of hydrolysis” value is listed as 4.43+0.1×10^-6 mol min^-1.
